Test results reported in patent publication US20220412957A1, “METHODS OF TREATING CANCER PATIENTS WITH RAS NODE OR RTK TARGETED THERAPEUTIC AGENTS” (Celcuity Inc., priority 2019, published 2022).

Assays:
[1] = tested on: S1P-initiated signaling in HER2-negative/PI3K wild-type breast tumor cell samples; test: impedance biosensor cell adhesion test, S1P agonist with HER2 inhibitor (Example 2); type: cell-based, human; parameters: scale not given here
Excerpt: (§1) Tissue and cell samples: Eighteen HER2-negative/PI3K wild-type breast tumor cell samples were studied.
(§2) In this example, four of the eighteen patient cell samples tested recorded output values with the targeted therapeutic, neratinib, above 500. These four patients would thus be selected to receive treatment with neratinib, even though they are HER2-negative.

[2] = tested on: LPA1-initiated signaling in HER2-negative/PI3K wild-type breast tumor cell samples; test: impedance biosensor cell adhesion test, LPA1 agonist with HER2 inhibitor (Example 2); type: cell-based, human; parameters: scale not given here
Excerpt: as §1, §2

CCOc1cc2ncc(C#N)c(Nc3ccc(OCc4ccccn4)c(Cl)c3)c2cc1NC(=O)/C=C/CN(C)C [Neratinib, neratinib]
output value ([1]; sample C125, cut-off 500): −19
output value ([1]; sample C129, cut-off 500): 48
output value ([1]; sample C133, cut-off 500): 65
output value ([1]; sample C148, cut-off 500): −11
output value ([1]; sample C152, cut-off 500): 198
output value ([1]; sample C197, cut-off 500): 313
output value ([1]; sample C199, cut-off 500): 283
output value ([1]; sample C201, cut-off 500): −12
output value ([1]; sample C213, cut-off 500): 41
output value ([1]; sample C219, cut-off 500): −48
output value ([1]; sample C223, cut-off 500): 284
output value ([1]; sample C230, cut-off 500): 289
output value ([1]; sample C251, cut-off 500): 16
output value ([1]; sample C270, cut-off 500): 301
output value ([1]; sample C276, cut-off 500): 11
output value ([1]; sample C307, cut-off 500): 41
output value ([1]; sample C371, cut-off 500): 270
output value ([1]; sample C434, cut-off 500): −1
output value ([2]; sample C125, cut-off 500): 54
output value ([2]; sample C129, cut-off 500): 247
output value ([2]; sample C133, cut-off 500): 161
output value ([2]; sample C148, cut-off 500): 38
output value ([2]; sample C152, cut-off 500): 482
output value ([2]; sample C197, cut-off 500): 590
output value ([2]; sample C199, cut-off 500): 296
output value ([2]; sample C201, cut-off 500): 110
output value ([2]; sample C213, cut-off 500): 42
output value ([2]; sample C219, cut-off 500): 92
output value ([2]; sample C223, cut-off 500): 666
output value ([2]; sample C230, cut-off 500): 506
output value ([2]; sample C251, cut-off 500): 106
output value ([2]; sample C270, cut-off 500): 962
output value ([2]; sample C276, cut-off 500): 166
output value ([2]; sample C307, cut-off 500): 38
output value ([2]; sample C371, cut-off 500): 460
output value ([2]; sample C434, cut-off 500): 35
